Literature values, collected in paper PMC9199361 (Inorganic chemistry, 2020).

Key:
[1] = for log KML: copper(II) complex of the chelator
[2] = copper complex of the chelator
[3] = 5 M HCl, 90 °C

Compound	log KML [1]	E1/2 (V) [2]	reversibility of the redox event at E1/2 [2]	acid stability (conditions) [3]	thermodynamic stability constant (log KML) ([1]; copper(II) complex)
O=C(O)CN1CCCN2CCN(CCCN(CC(=O)O)CC2)CC1 [CB-TE2A]	27.1	−0.88 V	quasi-rev	254 h (5 M HCl, 90 °C)	
O=C(O)CN1CCN(CC(=O)O)CCN(CC(=O)O)CC1 [NOTA]			irrev	<3 min (5 M HCl, 90 °C)	21.9
O=C(O)CN1CCCN(CC(=O)O)CCN(CC(=O)O)CCCN(CC(=O)O)CC1 [TETA]	21.9	−0.980 V	irrev	<4.5 min (5 M HCl, 90 °C)	
